Experimental data: patent US4585861A, “1,2,4-triazine derivatives” (Eli Lilly and Company, priority 1985, dated 1986)
pEC50: −log10 of the molar value. Structures can show the parent of a compound that is named as a salt.

Experiments:
[1] = Mouse Writhing Inhibition Assay; assay type: in vivo, Cox standard strain albino male mice
Method: Writhing, which is characterized by contraction of the abdominal musculature, extension of the hindlegs, and rotation of the trunk, was induced in Cox standard strain albino male mice. The mice, weighing 18-24 grams, were fasted overnight and given the test compound by gavage in an acacia suspension (5%) 60 minutes before writhing was induced by the intraperitoneal administration of 55 mg./kg. of acetic acid (0.55 percent). Each treatment group consisted of 3 mice. The total number of writhes for the treatment group was determined during a 5-minute observation starting 5 minutes after acetic acid administration.

[2] = Appetite Suppression Assay; assay type: in vivo, Cox standard strain albino male mice; conditions: Mus musculus
Method: In this test, groups of three Cox standard strain albino male mice were weighed (18-24 grams) and then fasted overnight (16-18 hours). The mice were reweighed and then given the test compound in a suspension of acacia (5%) by gavage. Thirty minutes after oral administration, the mice were allowed to eat freely for one hour. After the eating period, the mice were weighed once more. The percent of weight gained (from the time the mice were given the test compound to after the feeding period) compared to weight lost during the fast period was calculated. The non-drug treated control animals gained back 35-55% of the weight lost on fasting. Any compound at the dose level tested which produced a weight gain of less than 10% was considered to be active. The results in Table 2 report the lowest dose level in which there was activity for each compound tested. Dextroamphetamine sulfate is active in this system at about 2.5 mg./kg.

[3] = Metrazole Induced Convulsion Inhibition Assay; assay type: in vivo, Cox standard strain albino male mice; conditions: Mus musculus
Method: (§1) In this assay, a compound to be tested was suspended in acacia (5%) and administered by gavage to each of three Cox standard strain albino male mice (18-24 grams) at the dose level being investigated. One hour after the oral administration, a water solution of metrazole (pentylenetetrazole) was administered by the intraperitoneal route to each mouse at a dose of 110 mg./kg. […] A score of 0 was assigned to a mouse not showing any signs of convulsant activity; a score of 1 was given to mice developing clonic convulsions; a score of 2 was given to mice showing flexor tonic convulsions; a score of 3 was given to mice showing extensor tonic convulsions; and a score of 4 was given to mice that died within the one hour. The scores of the three mice were totalled for each compound and dose level. The scores can range from 0 to 12; a score of 6 or less was interpreted as indicative of an active compound at that dose level. Values reported in Table 2 below are the minimum oral dose levels (mg./kg.) where activity as defined above was observed.

[4] = Electroshock Induced Convulsion Inhibition Assay; assay type: in vivo, Cox standard strain albino male mice; conditions: Mus musculus
Method: as §1
The drug administration and test conditions used in this assay were similar to those used in the metrazole induced convulsion inhibition assay above except that a 0.1 second, 50 milliampere electroshock through corneal electrodes induced the convulsion instead of metrazole. The animals were examined and evaluated immediately after the electroshock and were scored as before. The results in Table 2 are expressed as the lowest dose of each compound tested which was active as previously defined. For comparison, 18 milliamperes was usually sufficient to produce extensor tonic convulsions in about half of the control animals; at 50 milliamperes, almost all control animals died. Diazepam was active at about 1 mg./kg.

[5] = biological target: GABA receptor; experiment: In vitro activation of GABA binding ([3H]GABA, Triton X-100 treated membrane protein); conditions: average of one or more tests, read-out: SC50 GABA (nanomolar concentration producing a 50% increase in binding)
Method: (§2) The novel compounds of this invention were examined for their in vitro ability to activate GABA and benzodiazepine (BZ) binding. To measure the effect of a compound on GABA binding, Triton X-100 (octylphenoxy polyethoxyethanol, Rohm and Haas Co.) treated membrane protein was incubated in the presence of the compound and [^3 H]GABA as detailed by Horng and Wong, J. Neurochemistry, 32 (5), 1379 (1979). To examine BZ binding, H-flunirazepam and the compounds were incubated with native membrane protein as reported by Wong, et al, Brain Res. Bull., 5 (Suppl. 2), 853 (1980). The results in Table 1 are the nanomolar concentrations of compounds (by Example No.) which produced a 50 percent increase (SC50) in GABA or BZ binding. Each result is the average of one or more tests.

[6] = biological target: benzodiazepine receptor; experiment: In vitro activation of benzodiazepine (BZ) binding (flunirazepam, native membrane protein); conditions: average of one or more tests, read-out: SC50 BZ (nanomolar concentration producing a 50% increase in binding)
Method: as §2

[7] = oral gavage, 1 h before metrazole 110 mg./kg. i.p., active = total score of 6 or less (3 mice, range 0-12), read-out: Minimum active oral dose, Metrazole
[8] = oral, 0.1 second, 50 milliampere corneal electroshock, active = total score of 6 or less, read-out: Minimum active oral dose, Electro-Shock
[9] = oral gavage 60 min before acetic acid 55 mg./kg. i.p., active = less than ten writhes, read-out: Minimum active oral dose, Mouse Writhing
[10] = oral gavage 30 min before feeding, active = weight gain of less than 10% of weight lost on fasting, read-out: Minimum active oral dose, Appetite Suppression

CC(=O)Oc1ccccc1C(=O)O [Aspirin, acetyl salicylic acid, reference compound]
minimal effective dose ([1]; po, read-out: dose showing activity, mouse writhing (reference)): 200 mg/kg

C[C@H](N)Cc1ccccc1 [Dextroamphetamine sulfate, reference compound]
minimal effective dose ([2]; po, read-out: dose showing activity, appetite suppression (reference)): ~2.5 mg/kg

CN1C(=O)CN=C(c2ccccc2)c2cc(Cl)ccc21 [Diazepam, reference compound]
minimal effective dose ([3]; po, read-out: dose showing activity, metrazole test (reference)): ~1 mg/kg | minimal effective dose ([4]; po, read-out: dose showing activity, electroshock test (reference)): ~1 mg/kg

Cc1ccc(-c2nnc(N3CCC(O)CC3)nc2-c2ccc(C)cc2)cc1 [Example 7, 1-[5,6-bis(4-methylphenyl)-1,2,4-triazin-3-yl]-4-piperidinol]
pEC50 [5]: 6.05 | minimal effective dose [3, 7]: 3.1 mg/kg | minimal effective dose [4, 8]: < 25 mg/kg | minimal effective dose [1, 9]: 3.1 mg/kg | minimal effective dose [2, 10]: 3.1 mg/kg | pEC50 [6]: 6.15

CCc1ccc(-c2nnc(N3CCC(O)CC3)nc2-c2ccc(CC)cc2)cc1 [Example 8, 1-[5,6-bis(4-ethylphenyl)-1,2,4-triazin-3-yl]-4-piperidinol]
pEC50 [5]: < 5.00 | pEC50 [6]: 5.46

Cc1ccccc1-c1nnc(N2CCC(O)CC2)nc1-c1ccccc1C [Example 9, 1-[5,6-bis(2-methylphenyl)-1,2,4-triazin-3-yl]-4-piperidinol]
pEC50 [5]: < 5.00 | pEC50 [6]: < 5.00

Cc1cccc(-c2nnc(N3CCC(O)CC3)nc2-c2cccc(C)c2)c1 [Example 10, 1-[5,6-bis(3-methylphenyl)-1,2,4-triazin-3-yl]-4-piperidinol]
pEC50 [6]: < 5.00

OC1CCN(c2nnc(-c3ccc(Cl)cc3)c(-c3ccc(Cl)cc3)n2)CC1 [Example 11, 1-[5,6-bis(4-chlorophenyl)-1,2,4-triazin-3-yl]-4-piperidinol]
minimal effective dose [3, 7]: 12.5 mg/kg | minimal effective dose [4, 8]: > 25 mg/kg | minimal effective dose [1, 9]: > 25 mg/kg | minimal effective dose [2, 10]: 25 mg/kg

CC(=O)OC1CCN(c2nnc(-c3ccc(C)cc3)c(-c3ccc(C)cc3)n2)CC1 [Example 12, 1-[5,6-bis(4-methylphenyl)-1,2,4-triazin-3-yl]-4-piperidinol, acetate (ester)]
pEC50 [5]: 8.48 | minimal effective dose [3, 7]: 6.25 mg/kg | minimal effective dose [4, 8]: 25 mg/kg | minimal effective dose [1, 9]: 12.5 mg/kg | minimal effective dose [2, 10]: 12.5 mg/kg | pEC50 [6]: 8.26

CC(=O)OC1CCN(c2nnc(-c3ccc(Cl)cc3)c(-c3ccc(Cl)cc3)n2)CC1 [Example 13, 1-[5,6-bis[4-chlorophenyl]-1,2,4-triazin-3-yl]-4-piperidinol, acetate (ester)]
pEC50 [5]: 7.82 | minimal effective dose [3, 7]: 50 mg/kg | minimal effective dose [4, 8]: > 50 mg/kg | minimal effective dose [1, 9]: > 50 mg/kg | minimal effective dose [2, 10]: > 50 mg/kg | pEC50 [6]: 7.92

CC(=O)OC1CCN(c2nnc(-c3ccccc3C)c(-c3ccccc3C)n2)CC1 [Example 14, 1-[5,6-bis(2-methylphenyl)-1,2,4-triazin-3-yl]-4-piperidinol, acetate (ester)]
pEC50 [5]: 7.22 | minimal effective dose [3, 7]: 200 mg/kg | minimal effective dose [4, 8]: > 200 mg/kg | minimal effective dose [1, 9]: > 200 mg/kg | minimal effective dose [2, 10]: 200 mg/kg | pEC50 [6]: 6.00

CCC(=O)OC1CCN(c2nnc(-c3ccc(C)cc3)c(-c3ccc(C)cc3)n2)CC1 [Example 15, 1-[5,6-bis(4-methylphenyl)-1,2,4-triazin-3-yl]-4-piperidinol, propanoate (ester)]
pEC50 [5]: 8.00 | minimal effective dose [3, 7]: 12.5 mg/kg | minimal effective dose [4, 8]: 12.5 mg/kg | minimal effective dose [1, 9]: 12.5 mg/kg | minimal effective dose [2, 10]: 12.5 mg/kg | pEC50 [6]: 7.72

Cc1ccc(-c2nnc(N3CCC(OC(=O)C(C)(C)C)CC3)nc2-c2ccc(C)cc2)cc1 [Example 16, 1-[5,6-bis(4-methylphenyl)-1,2,4-triazin-3-yl]-4-piperidinol, pivaloate (ester)]
pEC50 [5]: 6.96 | pEC50 [6]: 7.85

Cc1ccc(-c2nnc(N3CCC(OC(=O)c4ccccc4)CC3)nc2-c2ccc(C)cc2)cc1 [Example 17, 1-[5,6-bis(4-methylphenyl)-1,2,4-triazin-3-yl]-4-piperidinol, benzoate (ester)]
pEC50 [5]: 6.30 | minimal effective dose [3, 7]: > 200 mg/kg | minimal effective dose [4, 8]: > 200 mg/kg | minimal effective dose [1, 9]: > 200 mg/kg | minimal effective dose [2, 10]: > 200 mg/kg | pEC50 [6]: 6.00

Cc1ccc(-c2nnc(N3CCC(O)C3)nc2-c2ccc(C)cc2)cc1 (centres unmarked) [Example 18, 1-[5,6-bis(4-methylphenyl)-1,2,4-triazin-3-yl]-3-pyrrolidinol]
minimal effective dose [3, 7]: > 200 mg/kg | minimal effective dose [4, 8]: 200 mg/kg | minimal effective dose [1, 9]: 200 mg/kg | minimal effective dose [2, 10]: 12.5 mg/kg

CC(=O)OC1CCN(c2nnc(-c3ccc(C)cc3)c(-c3ccc(C)cc3)n2)C1 (centres unmarked) [Example 19, 1-[5,6-bis(4-methylphenyl)-1,2,4-triazin-3-yl]-3-pyrrolidinol, acetate (ester)]
pEC50 [5]: 7.37 | pEC50 [6]: 7.22

Cc1ccc(-c2nnc(N3CCOCC3)nc2-c2ccc(C)cc2)cc1 [Example 22, 3-morpholino-5,6-bis(4-methylphenyl)-1,2,4-triazine]
pEC50 [5]: 6.06 | pEC50 [6]: 5.94

Cc1ccc(-c2nnc(N3CCC(C)CC3)nc2-c2ccc(C)cc2)cc1 [Example 25, 5,6-bis(4-methylphenyl)-3-(4-methyl-1-piperidinyl)-1,2,4-triazine]
minimal effective dose [3, 7]: > 200 mg/kg | minimal effective dose [4, 8]: > 200 mg/kg | minimal effective dose [1, 9]: > 200 mg/kg | minimal effective dose [2, 10]: 50 mg/kg

CCOC1CCN(c2nnc(-c3ccc(C)cc3)c(-c3ccc(C)cc3)n2)CC1 [Example 27, 3-(4-ethoxy-1-piperidinyl)-5,6-bis(4-methylphenyl)-1,2,4-triazine]
pEC50 [5]: 8.00 | pEC50 [6]: 7.68

CNC(=O)OC1CCN(c2nnc(-c3ccc(C)cc3)c(-c3ccc(C)cc3)n2)CC1 [Example 30, 1-[5,6-bis(4-methylphenyl)-1,2,4-triazin-3-yl]-4-piperidinol, N-methyl carbamate (ester)]
pEC50 [5]: 7.00 | pEC50 [6]: 7.62

Cc1ccc(-c2nnc(N3CCC(OC(=O)N(C)C)CC3)nc2-c2ccc(C)cc2)cc1 [Example 31]
pEC50 [5]: 9.00 | pEC50 [6]: 8.52

Cc1ccc(-c2nnc(N3CCC(OC=O)CC3)nc2-c2ccc(C)cc2)cc1 [Example 34, 1-[5,6-bis(4-methylphenyl)-1,2,4-triazin-3-yl]-4-piperidinol, formate (ester)]
pEC50 [5]: 7.89 | pEC50 [6]: 8.00

Cc1ccc(-c2nnc(N3CCC(C(N)=O)CC3)nc2-c2ccc(C)cc2)cc1 [Example 36, 1-[5,6-bis(4-methylphenyl)-1,2,4-triazin-3-yl]-4-piperidinecarboxamide]
pEC50 [5]: 6.10 | pEC50 [6]: 5.07

Cc1ccc(-c2nnc(N3CCC(CO)CC3)nc2-c2ccc(C)cc2)cc1 [Example 37, 1-[5,6-bis(4-methylphenyl)-1,2,4-triazin-3-yl]-4-piperidinemethanol]
pEC50 [5]: 6.80 | pEC50 [6]: 6.28

Cc1ccc(-c2nnc(N3CCC(=NO)CC3)nc2-c2ccc(C)cc2)cc1 [Example 40, 1-[5,6-bis(4-methylphenyl)-1,2,4-triazin-3-yl]-4-piperidinone, oxime]
pEC50 [5]: 5.89 | pEC50 [6]: 5.80
